From patent US7157570B2, “Human ribonucleotide reductase M2 subunit” (priority 2002, dated 2007)

What was measured:
[1] = tested on: hRRM2 protein in KB cells; assay: Western blot of hRRM2 protein after exposure to HU; format: cell-based, human; details: 0.1 mM HU, 4-hour point
DNA of KB cells = details: any HU treatment schedule (control)
hRRM2 mRNA in KB cells = assay: Northern blot of hRRM2 mRNA after exposure to HU; format: cell-based, human; details: 0.1 mM HU
KB cells [2] = assay: colony-forming assay; format: cell-based, human; details: drug alone (0.1 mM HU or 0.3 μM Gem)
[3] = tested on: intracellular dNTP pools in KB cells; assay: dNTP pool assay; format: cell-based, human
Protocol: After treatment at designated time points with HU and/or Gem, cells were trypsinized, washed with PBS and viable cells were counted by Trypan Blue dye exclusion. Cells were transferred to 1.5 ml Eppendorf tubes and pelleted by brief centrifugation. Cell pellets were mixed with 100 μl 15% trichloroacetic acid and kept on ice for 10 minutes. It was then centrifuged for 5 minutes and the supernatant collected. dNTPs were extracted with two 50 μl aliquots of freon/trioctylamine (55%:45%). After each centrifugation, the supernatant was saved. 5 μl aliquots of each sample were used to check dATP, dCTP, dGTP, and dTTP concentrations. Each measurement was performed in duplicate (Zhou et al. (1998) Biochem Pharmaco 55, 1657–1665).
The reaction mixture contained 50 mM Tris-HCl (pH 7.5), 10 mM MgCl2, 5 mM DTT, 0.25 μM template/primer, 1.25 μM ^3H-dATP (for dCTP, dGTP, and dTTP assays) or ^3H-dTTP (for dATP assay), and 0.2 units of Sequenase (2.0) in a total volume of 50 μl. DNA synthesis was allowed to proceed for twenty minutes at room temperature and then the reaction was stopped and 40 μl of the reaction mixture was spotted onto Whatman DE81 ion exchange paper (2.4 cm diameter). The paper was dried, washed with 5% Na2HPO4 (3×10 min.), and rinsed once with distilled water and once with 95% ethanol. Samples were counted in a liquid scintillation counter and compared to standard samples prepared in the presence of 0.25, 0.5, and 1.0 pmol/μl of each dNTP.
To evaluate the effect of HU on dNTP pools in KB cells, each dNTP pool was measured as described in the Materials and Methods. dATP and dCTP were the most susceptible of the four dNTP pools to inhibition by HU. A decrease in these intracellular pools commenced after 1 hour of exposure to HU. The decline continued, with the dCTP pool reaching a nadir of approximately 15% of the control at 4 hours. The dATP pool reached a nadir after 8 hours. In a second phase, between 8 and 24 hours after exposure to HU, the dATP and dCTP pools slowly recovered to about 80% of their starting level. […] The decline and recovery of the dCTP and dATP pools paralleled the results of the colony-forming study. The initial drop in hRRM2 mRNA and protein, observed after 2–4 hours of HU exposure, could contribute to the rapid decline in dCTP and dATP pools seen after 4 hrs, while the subsequent overexpression of hRRM2 mRNA and protein would provide the needed activity to allow gradual recovery of the levels of dCTP and dATP.

KB cells [4] = assay: cell cycle analysis by flow cytometry; format: cell-based, human; details: 4 to 8 hours of exposure to HU
Protocol: The cell cycle analysis was performed at flowcytometry core facility of City of Hope National Medical Center. The percent of cells in each phase of the cell cycle was analyzed by ModFit software. The protocol was summarized as below. Cells were trypsinized, washed twice with PBS, and resuspended in 1 ml PBS. 7 ml 0.5 M citric acid buffer (pH 2.35) was added and samples were stored overnight at room temperature in the dark. On the second day, the cells were placed at 4° C. in a dark environment. On the third day, cells were spun down, resuspended in citric acid buffer (pH 4.5) and adjusted to a concentration of 1×10^6 cells/ml. On the following day, the cells were spun down and resuspended in 1 ml BSA-H (0.1% BSA in PBS buffer). 150 μg RNase A (DNase free) was added to the solution and cells were incubated at 37° C. for 30 minutes. The cells were washed once with BSA-H and the pellet was resuspended in 1 ml 100 μg/ml propidium iodine (PI) and stored overnight at room temperature in the dark. On the following day, cells were analyzed by flowcytometry (Gao et al. (1998) Biochem Pharmaco 56, 105–112).
To further examine the time- and sequence-dependent interaction between HU and Gem, the effect of HU on cell cycle was studied. […] As Gem function requires DNA synthesis, the increased percent of cells in S-phase after 4 to 8 hours after exposure to HU is likely to augment its function.

RR activity in KB cells = biological target: T1, RR activity in KB cells (Homo sapiens, UniProt P31350); assay: in vivo RR activity assay (permeabilized cells); format: cell-based; details: 0.1 mM HU
T1 construct: endogenous in cells; host or cells: KB cells (human oropharyngeal carcinoma), permeabilized with lysolecithin
T1 sequence (P31350 1-389): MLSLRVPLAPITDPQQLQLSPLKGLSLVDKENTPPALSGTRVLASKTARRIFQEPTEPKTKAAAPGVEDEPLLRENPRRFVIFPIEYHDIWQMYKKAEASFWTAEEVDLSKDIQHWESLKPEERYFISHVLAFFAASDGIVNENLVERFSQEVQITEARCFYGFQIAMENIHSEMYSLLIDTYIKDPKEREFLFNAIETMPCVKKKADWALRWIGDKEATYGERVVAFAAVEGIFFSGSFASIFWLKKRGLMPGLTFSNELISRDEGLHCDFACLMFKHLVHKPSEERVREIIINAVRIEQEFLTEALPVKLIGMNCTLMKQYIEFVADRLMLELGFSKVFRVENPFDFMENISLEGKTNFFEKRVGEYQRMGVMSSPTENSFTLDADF
Protocol: […] cells were plated in duplicate in 60-mm dishes. Cells were treated with 0.1 mM HU and harvested at the indicated time points. To permeabilize the cells, they were washed twice in Solution A (150 mM sucrose, 80 mM KCL, 35 mM HEPES, pH 7.4, 5 mM potassium phosphate, pH 7.4, 5 mM MgCl2, 0.5 mM CaCl2), resuspended in 500 μl of cold Solution A containing 0.25 mg/ml lysolecithin, and incubated for 1 minute at 4° C. To measure the activity of ribonucleoside diphosphate reduction and DNA synthesis, 1×10^6 permeabilized cells were incubated at 37° C. for 10 minutes in 300 μl of 50 mM HEPES, pH 7.4, 10 mM MgCl2, 8 mM dithiothreitol, 0.06 mM FeCl3, 7.5 mM potassium phosphate, pH 7.4, 0.75 mM CaCl2, 10 mM phosphoenolpyruvate, 0.2 mM ^3H-rCDP, 0.2 mM rGDP, 0.2 mM rADP, 0.2 mM dTDP. Following incubation, 150 μl of the suspension mixture was taken out, resulting in two samples, and mixed with 30 μl of 60% perchloric acid/0.1% sodium pyrophosphate. After a 15-minute incubation on ice, 1 ml ddH2O was added to dilute the mixture and then it was centrifuged to precipitate any acid-insoluble material. Pellets were extracted with 0.1 ml 0.2 N NaOH and incubated at 37° C. for 30 minutes.
An in vivo RR activity assay was performed at the same time points as above described. […] The results are consistent with the observed levels of hRRM2 mRNA and protein expression.

KBHURs clone = details: cited from earlier work
human RR = biological target: T2, human RR (Homo sapiens, UniProt P23921); assay: inhibition of human RR activity by C-terminal RRM2 peptide added to the enzyme in vitro; format: biochemical
T2 sequence (P23921 1-792): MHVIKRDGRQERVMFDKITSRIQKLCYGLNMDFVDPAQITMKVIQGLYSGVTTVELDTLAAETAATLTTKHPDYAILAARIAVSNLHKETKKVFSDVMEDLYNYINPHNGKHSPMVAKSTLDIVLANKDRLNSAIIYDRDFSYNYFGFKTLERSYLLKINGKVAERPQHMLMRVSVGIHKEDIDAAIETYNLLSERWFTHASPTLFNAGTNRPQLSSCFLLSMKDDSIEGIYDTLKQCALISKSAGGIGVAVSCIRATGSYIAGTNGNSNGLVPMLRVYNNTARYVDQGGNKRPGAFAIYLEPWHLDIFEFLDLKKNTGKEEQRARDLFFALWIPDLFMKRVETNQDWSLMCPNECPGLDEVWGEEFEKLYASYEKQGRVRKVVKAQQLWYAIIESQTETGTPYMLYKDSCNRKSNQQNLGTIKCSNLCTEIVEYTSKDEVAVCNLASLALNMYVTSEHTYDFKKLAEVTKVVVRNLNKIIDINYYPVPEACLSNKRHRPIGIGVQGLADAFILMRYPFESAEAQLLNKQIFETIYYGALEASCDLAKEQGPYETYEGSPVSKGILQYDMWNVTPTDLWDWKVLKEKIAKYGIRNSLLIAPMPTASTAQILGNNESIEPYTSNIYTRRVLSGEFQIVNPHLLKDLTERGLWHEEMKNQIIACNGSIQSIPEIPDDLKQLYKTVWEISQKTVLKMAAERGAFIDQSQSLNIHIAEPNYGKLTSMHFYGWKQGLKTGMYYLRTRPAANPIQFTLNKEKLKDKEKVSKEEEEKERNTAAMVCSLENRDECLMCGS
Excerpt: Other compounds that can be used to inhibit RRM1 and RRM2 or RRM1 and p53R2 interaction include a peptide or polypeptide containing an amino acid sequence at the C-terminus of RRM2. […] It was further observed that a truncated form of the M2 subunit, lacking these 7 amino acids at the C-terminus, fails to form a complex with the corresponding large subunit M1. […] Thus, methods of treating a cell proliferation-associated disorder using the peptide of SEQ ID NO:5 or its functional equivalents are within the scope of the invention. Peptides or polypeptides that are functionally equivalent to SEQ ID NO:5 can be either longer or shorter than SEQ ID NO:5, or contain substitute amino acids within SEQ ID NO:5, as long as they are capable of inhibiting the interaction between RRM1 and RRM2 or RRM1 and p53R2. Such peptides or polypeptides can be generated and used according to the methods described above or any other methods well known in the art.

[5] = biological target: T3, ribonucleotide reductase M1 subunit (RRM1) (human, UniProt P23921 1-792, limits assumed); assay: complex formation assay (method not described)
T3 construct: For the truncation experiment it says only 'the corresponding large subunit M1'; The construct is not described; also called large subunit M1
T3 sequence (looked up): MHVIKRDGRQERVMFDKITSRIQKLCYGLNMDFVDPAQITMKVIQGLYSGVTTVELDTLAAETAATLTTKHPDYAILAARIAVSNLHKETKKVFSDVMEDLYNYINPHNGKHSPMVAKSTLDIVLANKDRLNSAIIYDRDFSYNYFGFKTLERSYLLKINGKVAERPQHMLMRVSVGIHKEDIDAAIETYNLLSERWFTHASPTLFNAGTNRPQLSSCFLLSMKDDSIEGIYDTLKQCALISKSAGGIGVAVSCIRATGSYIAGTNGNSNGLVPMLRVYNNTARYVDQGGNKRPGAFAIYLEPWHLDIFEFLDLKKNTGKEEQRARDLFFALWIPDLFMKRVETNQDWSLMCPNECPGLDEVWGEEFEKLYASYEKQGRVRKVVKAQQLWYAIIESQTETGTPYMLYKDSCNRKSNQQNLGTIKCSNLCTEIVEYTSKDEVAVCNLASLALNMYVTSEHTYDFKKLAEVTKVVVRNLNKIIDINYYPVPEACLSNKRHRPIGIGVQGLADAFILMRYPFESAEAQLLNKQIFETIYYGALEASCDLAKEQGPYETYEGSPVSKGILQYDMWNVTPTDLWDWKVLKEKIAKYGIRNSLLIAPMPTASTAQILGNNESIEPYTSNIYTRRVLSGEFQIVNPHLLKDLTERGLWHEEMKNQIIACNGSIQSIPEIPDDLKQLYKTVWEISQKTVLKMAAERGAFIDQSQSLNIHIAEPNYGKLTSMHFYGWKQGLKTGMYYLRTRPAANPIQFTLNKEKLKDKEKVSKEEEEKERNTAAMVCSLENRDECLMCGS

## NC(=O)NO [HU, hydroxyurea]
[1]
  hRRM2 protein expression: decrease
DNA of KB cells
  incorporation of 3H-labeled CDP into DNA: did not vary significantly
hRRM2 mRNA in KB cells; 2 hours
  decrease of hRRM2 mRNA relative to untreated sample: 20%
hRRM2 mRNA in KB cells; 4 hours
  hRRM2 mRNA, % of control levels: 60%
KB cells [2]
  colony formation, % of untreated controls: approximately 50%
[3]; HU exposure
  dTTP and dGTP pools over time: did not vary significantly
  time at which dATP pool reached a nadir: 8 h
[3]; HU, 4 hours
  dCTP pool nadir, % of the control: approximately 15%
[3]; between 8 and 24 hours after exposure to HU
  dATP and dCTP pools, % of starting level after recovery: about 80%
KB cells [4]
  percentage of cells in G1: remained stable
  percentage of cells in G2/M: declined
  percentage of cells in S-phase: approximately doubled
RR activity in KB cells; 8-hour point
  RR activity: recovered to the level of the control
RR activity in KB cells; 4 hours
  RR activity, % of the control: 60%
KBHURs clone
  increase in resistance to HU over KBwt cells: 15 fold

## FTLDADF (synthetically generated peptide)
Human RR; added to the enzyme in vitro at ratio 10:1 (peptide:enzyme)
  suppression of human RR activity: dramatically suppress
Human RR; in vitro
  inhibition of RR activity compared with RR inhibitors hydroxyurea and triapine: superior

B1: truncated form of the M2 subunit, lacking the 7 amino acids at the C-terminus (enzyme, human, UniProt P31350 1-382, looked up)
chain: MLSLRVPLAPITDPQQLQLSPLKGLSLVDKENTPPALSGTRVLASKTARRIFQEPTEPKTKAAAPGVEDEPLLRENPRRFVIFPIEYHDIWQMYKKAEASFWTAEEVDLSKDIQHWESLKPEERYFISHVLAFFAASDGIVNENLVERFSQEVQITEARCFYGFQIAMENIHSEMYSLLIDTYIKDPKEREFLFNAIETMPCVKKKADWALRWIGDKEATYGERVVAFAAVEGIFFSGSFASIFWLKKRGLMPGLTFSNELISRDEGLHCDFACLMFKHLVHKPSEERVREIIINAVRIEQEFLTEALPVKLIGMNCTLMKQYIEFVADRLMLELGFSKVFRVENPFDFMENISLEGKTNFFEKRVGEYQRMGVMSSPTENS
notes: domain: truncated form lacking the 7 amino acids at the C-terminus; To build it, delete the last 7 residues (FTLDADF) of RRM2; also called truncated M2
[5]
  binding result: no binding
